The test system of assay [1] is erythropoietin (EPO) gene expression. The assay can be described thus: Real-time reverse transcription quantitative PCR (qRT-PCR) assay of EPO gene expression. As to conditions: HepG2 cells, 24 hours, relative to vehicle. It counts as cell-based. How it is done:
Experimental method: HepG2 hepatocellular carcinoma cells are seeded into a 12-well plate. After 24 hours, 10 µM roxadustat, 1 µM tafamidis, 5 µM tafamidis, 10 µM tafamidis, and 20 µM tafamidis, a combination of 10 µM roxadustat and 1 µM tafamidis, a combination of 10 µM roxadustat and 5 µM tafamidis, a combination of 10 µM roxadustat and 10 µM tafamidis, and a combination of 10 µM roxadustat and 20 µM tafamidis, are added separately, and the cells are co-incubated with the compounds for 24 hours. No treatment is applied to the vehicle group. RNA is extracted using a TRIZOL reagent. cDNA transcription is performed using an All-in-one™ First-Strand cDNA Synthesis Kit (for specific operating procedures, see the manufacturer's instructions). A SYBR reagent is used for fluorescence signal detection, and GAPDH is used as an internal control. The qRT-PCR primers are as follows: • GAPDH_fwd, […]; • GAPDH_rev, TGGTGAAGACGCCAGTGGA; • EPO_fwd, […]; • EPO_rev, […].
The test results are shown in FIG. 2: relative to the vehicle (control group), monotherapy with 10 µM roxadustat upregulates erythropoietin (EPO) gene expression by 1.5-fold, while monotherapy with 20 µM tafamidis upregulates EPO gene expression by 1-fold. […] Such activation may have potential therapeutic value for treating diseases such as ischemic diseases or anemia. Statistical analysis is performed using SPSS software. […]
(In general: Quantitative PCR measures a nucleic acid by following its amplification.)

The subject of a further assay is rats with renal anemia. The assay can be described thus: Cisplatin-induced renal anemia rat model. It counts as in vivo, Male Sprague-Dawley (SD) rats. As to conditions: 5 mg/kg roxadustat. How it is done:
Male Sprague-Dawley (SD) rats are allowed a one-week acclimation period, after which cisplatin (6 mg/kg) is administered through tail vein injection. A second injection is given one week later. Two weeks after the first administration, successful establishment of a renal disease model is confirmed by measuring serum creatinine and urea levels. The successfully modeled rats are randomly divided into three groups: cisplatin group (n = 6), 5 mg/kg roxadustat group (n = 6), and 5 mg/kg roxadustat + 10 mg/kg tafamidis group (n = 6), with continuous administration for 4 weeks. A solvent is administered to the normal control group (n = 7) and the cisplatin group based on the same drug administration regimen. After drug administration, blood analysis is performed once per week using a Mindray automated hematology analyzer (BC-5150). After sample collection, the rats are euthanized. Statistical significance is determined by one-way analysis of variance (ANOVA), and then a Dunnett's test is performed for comparison with the cisplatin group (*P < 0.05, **P < 0.01, ***P < 0.001).

The target in the next assay is T1, HIF-2α (Homo sapiens, UniProt Q99814).
T1 construct: 786-O is a renal carcinoma cell line that predominantly expresses HIF-2α; endogenous in cells; host or cells: 786-O cells stably transfected with HRE-driven luciferase reporter
The assay can be described thus: Luciferase reporter gene assay (HRE-driven luciferase in stably transfected 786-O cells). Type of assay: cell-based. As to conditions: 786-O HRE-Luc cells, 24 hours, relative to blank control. From the text:
Experimental principles: 786-O is a renal carcinoma cell line that predominantly expresses HIF-2α and lacks functional HIF-1α. This characteristic makes 786-O cells an ideal model for studying HIF-2α transcriptional activity and related signaling pathways. In the luciferase reporter gene assay, a 786-O monoclonal cell line that stably expresses hypoxia response element (HRE)-driven luciferase (Luc) activity is obtained through puromycin selection. The HIF-2α agonist promotes dimerization of HIF-2α and HIF-β, and activates an HRE promoter. By measuring fluorescence intensity, luciferase activity can be determined, thereby assessing the ability of the HIF-2α agonist to promote transcription.
Experimental method: A total of 6000 stably transfected 786-O cells stably containing HRE and Luc sequences are seeded in each well of a 96-well plate, and 100 µL of RPMI-1640 culture medium containing 10% fetal bovine serum is added to each well. After 24 hours, a compound at a corresponding concentration is added to each well. A blank group is set as a control. Only a DMSO solvent is added in the well of the blank group. For initial compound screening, both tafamidis and tafamidis meglumine are tested at two concentrations: 2 µM and 20 µM. For concentration-gradient determination, each concentration is tested in triplicate. After co-incubation for 24 hours, the culture medium is discarded, and 20 µL of firefly luciferase reporter gene cell lysis buffer (RG126M, Beyotime) is added to each well. The 96-well plate is shaken on a microplate shaker for 10 minutes. After shaking, 10 µL of lysate is transferred into a white opaque plate, and then 10 µL of Steady-Lumi™ firefly luciferase assay reagent (RG058S, Beyotime) is added to each well. Finally, luminescence is measured using a microplate reader (Agilent Synergy Neo2). E20 represents the effect of the compound at a 20 µM concentration, and is calculated as: E20 = fluorescence value of the 20 µM well ÷ fluorescence value of the blank control × 100%. E2 represents the effect of the compound at a 2 µM concentration, and is calculated as: E2 = fluorescence value of the 2 µM well ÷ fluorescence value of the blank control × 100%. EC50 is the compound concentration at which the agonistic efficacy is increased by 50% relative to the blank control. […] The maximum activation percentage (Emax) of an agonist refers to a ratio, expressed as a percentage, of the fluorescence value corresponding to the maximal effect (observed maximal response) induced when the agonist concentration reaches receptor-binding saturation in a particular receptor system, to the fluorescence value of the receptor system in the absence of agonist. […]
On the technique in general: In a reporter assay the amount or activity of a reporter protein is the signal.

The values that follow come from patent EP4813384A1, “COMBINED PHARMACEUTICAL PREPARATION OF TAFAMIDIS OR PHARMACEUTICALLY ACCEPTABLE SALT THEREOF AND PROLINE HYDROXYLASE INHIBITOR” (Huaya Jiyuan (Shenzhen) Pharmaceutical Co., Ltd., priority 2024, dated 2025).

T1 sequence (Q99814 whole entry): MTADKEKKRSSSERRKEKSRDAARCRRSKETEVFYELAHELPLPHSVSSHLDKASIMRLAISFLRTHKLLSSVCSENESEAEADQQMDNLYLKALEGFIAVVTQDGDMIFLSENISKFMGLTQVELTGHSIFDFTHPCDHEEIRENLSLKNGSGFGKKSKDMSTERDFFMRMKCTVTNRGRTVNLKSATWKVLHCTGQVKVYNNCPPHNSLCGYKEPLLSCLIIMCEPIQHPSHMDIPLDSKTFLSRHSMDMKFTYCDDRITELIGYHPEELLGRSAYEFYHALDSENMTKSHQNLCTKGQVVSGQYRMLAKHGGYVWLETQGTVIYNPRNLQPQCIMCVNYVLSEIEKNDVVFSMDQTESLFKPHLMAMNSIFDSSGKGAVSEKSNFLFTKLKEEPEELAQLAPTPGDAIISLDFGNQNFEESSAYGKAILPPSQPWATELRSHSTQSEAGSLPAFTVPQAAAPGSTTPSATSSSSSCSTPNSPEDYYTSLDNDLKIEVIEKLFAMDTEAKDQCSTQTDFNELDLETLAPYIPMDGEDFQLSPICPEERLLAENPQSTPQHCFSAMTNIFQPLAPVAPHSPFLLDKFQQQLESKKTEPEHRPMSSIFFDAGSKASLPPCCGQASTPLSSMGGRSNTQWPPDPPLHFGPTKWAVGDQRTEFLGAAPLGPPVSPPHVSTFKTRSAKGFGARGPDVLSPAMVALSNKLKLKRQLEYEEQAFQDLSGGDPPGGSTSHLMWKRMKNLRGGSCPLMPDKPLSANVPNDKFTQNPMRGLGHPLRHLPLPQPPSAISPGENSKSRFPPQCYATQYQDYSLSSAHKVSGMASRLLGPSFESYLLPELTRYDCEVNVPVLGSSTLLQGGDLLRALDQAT
T1 sequence (P27540 whole entry partner): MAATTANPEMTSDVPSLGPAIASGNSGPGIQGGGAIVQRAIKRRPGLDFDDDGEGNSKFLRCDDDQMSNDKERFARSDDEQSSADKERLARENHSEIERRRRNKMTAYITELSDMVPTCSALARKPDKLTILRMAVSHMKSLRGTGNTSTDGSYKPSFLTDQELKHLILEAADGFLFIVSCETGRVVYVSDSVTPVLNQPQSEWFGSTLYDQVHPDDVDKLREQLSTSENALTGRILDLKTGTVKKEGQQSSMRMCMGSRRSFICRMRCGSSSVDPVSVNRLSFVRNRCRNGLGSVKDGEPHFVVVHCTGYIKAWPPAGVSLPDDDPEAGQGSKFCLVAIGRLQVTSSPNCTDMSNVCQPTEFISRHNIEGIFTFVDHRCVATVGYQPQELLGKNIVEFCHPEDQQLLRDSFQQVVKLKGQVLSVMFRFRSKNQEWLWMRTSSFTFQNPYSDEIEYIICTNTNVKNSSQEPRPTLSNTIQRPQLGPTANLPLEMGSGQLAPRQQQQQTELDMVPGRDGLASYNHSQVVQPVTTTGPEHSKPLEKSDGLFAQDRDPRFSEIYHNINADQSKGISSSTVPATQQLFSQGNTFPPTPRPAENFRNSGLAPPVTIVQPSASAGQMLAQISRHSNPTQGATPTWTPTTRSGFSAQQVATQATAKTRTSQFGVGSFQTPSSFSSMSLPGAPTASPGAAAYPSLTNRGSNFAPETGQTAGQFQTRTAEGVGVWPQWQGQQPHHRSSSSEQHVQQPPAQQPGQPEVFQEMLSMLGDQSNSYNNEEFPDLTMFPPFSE

For `Cc1nc(C(=O)NCC(=O)O)c(O)c2ccc(Oc3ccccc3)cc12` [roxadustat], in assay [1] (10 µM roxadustat monotherapy), the “upregulates erythropoietin (EPO) gene expression” value is given as 1.5 fold. In the assay on rats with renal anemia (Week 4, n = 6), the Hematocrit is recorded as 52.2 ± 1.3%, the Hemoglobin concentration came out at 143.3 ± 4.1 g/L and the “Red blood cell count” value is reported as 7.03 ± 0.40 ×10^12 cells/L. Moreover, the “kidneys appear red (gross observation of kidney tissues)” value in the assay with rats with renal anemia (group n = 6) was determined as 3 rats.
For the compound `O=C(O)c1ccc2nc(-c3cc(Cl)cc(Cl)c3)oc2c1` [tafamidis, 2-(3,5-dichlorophenyl)-1,3-benzoxazole-6-carboxylic acid], the “upregulates EPO gene expression” value in assay [1] (20 µM tafamidis monotherapy) was found to be 1 fold. Moreover, on HIF-2α, the “agonistic efficacy at a 2 µM concentration (E2)” value stood at 142% and the “agonistic efficacy at a 20 µM concentration (E20)” value came out at 207%.
With `O=C(O)c1ccc2nc(-c3cc(Cl)cc(Cl)c3)oc2c1` [tafamidis meglumine], on HIF-2α, the “agonistic efficacy at a 2 µM concentration (E2)” value came to 122% and the “agonistic efficacy at a 20 µM concentration (E20)” value worked out at 223%.
